Patent US20170095467A1, “ENCAPSULATION OF ISOQUINOLINE ALKALOIDS” (Rhizofeed, LLC, priority 2015, published 2017)

Experiments:
[1] = Heat degradation of alkaloids in crude extract / extraction with heat; assay type: physicochemical
Method: Two preliminary studies involving heat were conducted. In one study, the raw bloodroot powder was placed on a heating element for 24 hours while the alkaloid was extracted. […] In a second study, a crude extract of alkaloids was placed on a heating element at 67° C. to test for degradation.

[2] = Photosensitivity of sanguinarine and chelerythrine in crude rhizome extract under short-wave UV light (HPLC); assay type: physicochemical
Method: 2 mL of each sample was then collected. All dilutions were filtered through 0.22 um syringe filter (Restek) and were stored in a dark environment held at −4° C. Mobile phases were prepared using 40% acetonitrile, 59% distilled water, and 1% acetic acid. The flow rate was 1.0000 mL/minute, and a pressure of approximately 2161.06 psi was maintained. UV visible spectroscopy was used to determine the optimum wavelength of detection, and detection was carried out at 330 nm. Preliminary studies determined that isoquinoline alkaloids are […] under UV light. In a purified state, it has been established that Sanguinarine undergoes photochemical conversion to oxysanguinarine. […] As depicted in Table 7 and FIG. 5, exposure to light or UV radiation over any period of time has a detrimental effect on the encapsulation yield. According to certain embodiments, exposure to light and UV radiation can be minimized by storing the alkaloids in dark conditions until the encapsulation process is complete or the finished product is used.

[3] = tested on: rats; conditions: rat, in vivo; cited from earlier work
[4] = Encapsulate degradation by heat (oven / pelletization-like conditions); assay type: physicochemical; conditions: 24 h
Method: (§1) The optimized encapsulation method disclosed herein was employed to produce alkaloid loaded inulin beads. These beads were subjected to both heat and light to determine the protective properties conferred by the microencapsulation process.
To determine the protection the microencapsulation process provides against heat, 1 g of inulin beads was placed in a Fischer Scientific model 605G Isotemp Oven for 24 hours at 96° C. A comparative example of sanguinarine standard that was not encapsulated was also placed in the oven.
A second study was also performed to understand the effect pelletization could have on the microcapsules. In the second study, 1 g of inulin beads was placed in a loosely covered beaker and subjected to 121° C. heat and 16 psi conditions for 20 minutes. These values are much higher in magnitude and duration than will be endured in the pelletization process for animal feed. As depicted in Table 10, the microcapsules decreased degradation by a factor of 1.62.

[5] = Encapsulate degradation by UV light; assay type: physicochemical
Source text: as §1
To determine the light protection provided by the microencapsulation process, 1 g of inulin beads was exposed to a UV source (115V Arthur H. Thomas Co. Lamp).

[6] = Crude Extract Exposed to Heat (24 Hours)
[7] = Standard Extraction (No Heat or Light Exposure)
[8] = Crude Extract Exposed to UV Light (24 Hours)
[9] = Crude Extract Exposed to UV Light (48 Hours)
[10] = Crude Extract Exposed to UV Light (72 Hours)
[11] = Crude Extract Exposed to UV Light (144 Hours)

Structure (SMILES)	Percentage of alkaloid in Extract [1, 6] [%]	Percentage of alkaloid in Extract ([1]; Extracted with Heat (24 Hours)) [%]	Percentage of alkaloid in Extract [1, 7] [%]	Percentage of alkaloid in Extract [2, 8] [%]	Percentage of alkaloid in Extract [2, 9] [%]	Percentage of alkaloid in Extract [2, 10] [%]	Percentage of alkaloid in Extract [2, 11] [%]	Percentage of alkaloid in Extract [2, 7] [%]	LD50 [3] [mg/kg]	Percent Degradation ([4]; 96° C.) [%]	Post-Exposure Alkaloid concentration ([4]; 96° C.) [mg/mL]	Pre-exposure Alkaloid concentration ([4]; 96° C.) [mg/mL]	Percent Degradation ([4]; 121° C., 16 psi, Sang. Only) [%]	Post-Exposure Alkaloid concentration ([4]; 121° C., 16 psi, Sang. Only)	Pre-exposure Alkaloid concentration ([4]; 121° C., 16 psi, Sang. Only)	Percent Degradation [5] [%]	Post-Exposure Alkaloid conc. [5] [mg/mL]	Pre-exposure Alkaloid conc. [5] [mg/mL]
COc1ccc2c(c[n+](C)c3c4cc5c(cc4ccc23)OCO5)c1OC [Chelerythrine, chelerythrine]	1.81	2.43	2.95	1.50	1.46	1.45	1.30	2.95										
C[n+]1cc2c3c(ccc2c2ccc4cc5c(cc4c21)OCO5)OCO3 [Sanguinarine, sanguinarine]	4.28	3.41	5.21	2.61	2.41	2.35	1.26	5.21	1658									
C[n+]1cc2c3c(ccc2c2ccc4cc5c(cc4c21)OCO5)OCO3 [Standard, sanguinarine chloride]										25.40	0.229	0.307	63.30	.07306 (Sang mg/mL	.2002 (Sang. mg/mL	49.80	0.154	0.307
